For data set [1], the system named is TNFα-FL/Gaussia Luciferase. As to the kind of experiment: Dox Induced TNFα-FL-Gluc Assay. The data set is classed as cell-based. As to conditions: for pIC50: 24 hr Dox induction, 293FRT/TO cells, read-out: 24 hr Dox Inducible TNFaFLGluc 293FRT/TO: Mean IC50; for 24 hr Dox Inducible TNFaFLGluc 293FRT/TO: TNF/PD1: ratio of TNFaFLGluc IC50 to PD1ssGluc IC50. In outline: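 Compound was added with doxycycline to cells plated a day earlier, incubating at 37° C under 5% CO2. The reporter line is 293 T-REx expressing a TNFα (1-233)–Gaussia luciferase fusion under tetracycline-regulated control.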

For data set [2], the system named is multiple myeloma cell line NCI-H929. As to the kind of experiment: H929 Cell Viability Assay. The data set is classed as cell-based, human. The conditions noted are these: Homo sapiens, NCI-H929, 48 h, NCI-H929 cells, Celltiter-Glo. A digest of the protocol: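 Luminescent CellTiter-Glo read-out of viability after a 48 h exposure (37° C, 5% CO2) of NCI-H929 myeloma cells to compound dilutions in RPMI 1640 plus 10% FBS. Data for structures drawn without stereochemistry refer to stereoisomer mixtures.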

Data set [3] is described as follows: Liver Microsome Stability Assay (human). The conditions noted are these: human liver microsomes, with NADPH, 1.0 uM compound.
Method: (§1) Stability of a compound was assessed in the presence of liver microsomes from various sources—mouse, rat, monkey and human liver microsomes. 1.0 uM compound, 0.4% DMSO in 0.1 M Potassium Phosphate with 1.0 mg/mL liver microsomes, were incubated at 37° C. with or without 1 mM NADPH. The samples were quenched at 0, and 30 minutes.
A short description of data set [4]: Liver Microsome Stability Assay (rat). As to conditions: rat liver microsomes, with NADPH, 1.0 uM compound.
Method: as §1
Data set [5] concerns PD1-ss+10aa/Gaussia Luciferase. As to the kind of experiment: Dox-Induced PD1-ss-Gluc Assay. The data set is classed as cell-based. As to conditions: 24 hr Dox induction, 293FRT/TO cells, read-out: 24 hr Dox Inducible PD1ssGluc 293FRT/TO: Mean IC50. A digest of the protocol: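 Stable Flp-In 293 T-REx cells carried a doxycycline-inducible construct of Gaussia luciferase fused to the PD1 signal sequence plus 10 amino acids. Cells were plated the day before, then treated with compound dilutions in DMSO/media containing doxycycline at 37 °C, 5% CO2.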

A short description of data set [6]: Liver Microsome Stability Assay (mouse). As to conditions: mouse liver microsomes, with NADPH, 1.0 uM compound.
Method: as §1
Data set [7] can be described thus: Liver Microsome Stability Assay (monkey). As to conditions: monkey liver microsomes, with NADPH, 1.0 uM compound.
Method: as §1
In data set [8] the test system is IL-2-FL/Gaussia Luciferase. As to the kind of experiment: Dox Induced IL2-FL-Gluc Assay. It counts as cell-based. As to conditions: for pIC50: 24 hr Dox induction, 293FRT/TO cells, read-out: 24 hr Dox Inducible IL2FLGluc 293FRT/TO: Mean IC50; for 24 hr Dox Inducible IL2FLGluc 293FRT/TO: IL2/PD1: ratio of IL2FLGluc IC50 to PD1ssGluc IC50. In outline:
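Compounds in DMSO/medium with doxycycline were applied to a 293 T-REx stable line expressing an IL-2 (aa 1-153)–Gaussia luciferase fusion under tetracycline-regulated control, cells seeded one day earlier; incubation at 37 °C, 5% CO2. Structures drawn without stereochemistry were tested as stereoisomer mixtures.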

Data set [9] relates to HER3-ss+4aa/Gaussia Luciferase. As to the kind of experiment: Dox-Induced Her3-ss-Gluc Assay. The data set is classed as cell-based. As to conditions: 24 hr Dox induction, 293FRT/TO cells, read-out: 24 hr Dox Inducible Her3(ss + 4)Gluc 293FRT/TO: Mean IC50. A digest of the protocol:
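Compounds were diluted in DMSO/media containing doxycycline. They were added to Flp-In 293 T-REx cells plated the previous day, then incubated at 37 °C under 5% CO2. These cells stably express, under T-REx control, Gaussia luciferase fused to the HER3 signal sequence plus 4 amino acids.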

The test system of data set [10] is multiple myeloma cell line U266B1. The data set can be described thus: U266 Cell Viability Assay. The data set is classed as cell-based, human. The conditions noted are these: Homo sapiens, U-266, 48 h, U266B1 cells, Celltiter-Glo. A digest of the protocol: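 CellTiter-Glo luminescence was read after a 48 h compound exposure (37 °C, 5% CO2) of human U266B1 myeloma cells grown in 10% FBS-supplemented RPMI 1640. Data for structures shown without defined stereochemistry refer to stereoisomer mixtures.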

The mark [11] stands for this setting: '<=>' given where both are I.A.

pEC50, pIC50: −log10 of the molar value. Like-named read-outs stand apart in the source and are kept apart here.

The values below come from patent US20230286973A1, “PROTEIN SECRETION INHIBITORS” (KEZAR LIFE SCIENCES, priority 2020, published 2023).

In the case of `O=C(Nc1nc(/C=C/c2c[nH]cn2)cs1)c1cccn1Cc1ccnc(F)c1` [Compound B114, (E)-N-(4-(2-(1H-imidazol-4-yl)vinyl)thiazol-2-yl)-1-((2-fluoropyridin-4-yl)methyl)-1H-pyrrole-2-carboxamide], the pIC50 in [1] is below 4.60; in [5], 5.28; in data set [8], below 4.60; in [9], below 4.60. Moreover, in data set [1], the “24 hr Dox Inducible TNFaFLGluc 293FRT/TO: TNF/PD1” value was above 4.76. Further, the pEC50 in data set [2] and in data set [10] was below 4.60 throughout. Besides, the “Liver Microsome Stability (Multiple Species): Human - % Remaining after 30 min w/NADPH” value in data set [3] turned out to be 30.7%. In [4], the “Liver Microsome Stability (Multiple Species): Rat - % Remaining after 30 min w/NADPH” value is listed as 27.3%. Besides, the “Liver Microsome Stability (Multiple Species): Mouse - % Remaining after 30 min w/NADPH” value in [6] is 59.3%. In addition, in [7], the “Liver Microsome Stability (Multiple Species): Monkey - % Remaining after 30 min w/NADPH” value turned out to be 43.4%. Moreover, in [8], the “24 hr Dox Inducible IL2FLGluc 293FRT/TO: IL2/PD1” value is reported as above 4.8.
In the case of `NC(=O)Cn1cnc(/C=C/c2csc(NC(=O)c3cccn3Cc3ccnc(F)c3)n2)c1` [Compound B115], the pIC50 in data set [1], in data set [5], in data set [8] and in [9] was below 4.60 in each case. The “24 hr Dox Inducible TNFaFLGluc 293FRT/TO: TNF/PD1” value in data set [1] is “<=>1.00”. Moreover, the pEC50 in data set [2] and in data set [10] was below 4.60 throughout. Also, the “Liver Microsome Stability (Multiple Species): Human - % Remaining after 30 min w/NADPH” value in data set [3] stood at 12.8%. Also, the “Liver Microsome Stability (Multiple Species): Rat - % Remaining after 30 min w/NADPH” value in [4] is on record as 30%. Further, in data set [6], the “Liver Microsome Stability (Multiple Species): Mouse - % Remaining after 30 min w/NADPH” value is listed as 70.7%. The “Liver Microsome Stability (Multiple Species): Monkey - % Remaining after 30 min w/NADPH” value in data set [7] is reported as 11.5%. Besides, in data set [8], the “24 hr Dox Inducible IL2FLGluc 293FRT/TO: IL2/PD1” value is “<=>1.0”.
Regarding `Cc1c(/C=C/c2csc(NC(=O)c3cccn3Cc3ccnc(F)c3)n2)ncn1C(C)C` [Compound B116, (E)-1-((2-fluoropyridin-4-yl)methyl)-N-(4-(2-(1-isopropyl-5-methyl-1H-imidazol-4-yl)vinyl)thiazol-2-yl)-1H-pyrrole-2-carboxamide], the pIC50 was 4.73 in [1] (mean), 7.98 in [5] (mean), 5.28 in data set [8] (mean) and 5.43 in [9] (mean). In addition, the “24 hr Dox Inducible TNFaFLGluc 293FRT/TO: TNF/PD1” value in data set [1] (setting [11]) is 1780. Moreover, the pEC50 in [2] is 5.07; in data set [10], 5.02. Further, the “Liver Microsome Stability (Multiple Species): Human - % Remaining after 30 min w/NADPH” value in data set [3] is 0.16%. For the same compound, the “Liver Microsome Stability (Multiple Species): Rat - % Remaining after 30 min w/NADPH” value in [4] worked out at 8.66%. Also, the “Liver Microsome Stability (Multiple Species): Mouse - % Remaining after 30 min w/NADPH” value in data set [6] was found to be 11.3%. Besides, the “Liver Microsome Stability (Multiple Species): Monkey - % Remaining after 30 min w/NADPH” value in data set [7] is 0.16%. In data set [8] (setting [11]), the “24 hr Dox Inducible IL2FLGluc 293FRT/TO: IL2/PD1” value is listed as 500.
With `CCn1cnc(/C=C/c2csc(NC(=O)c3cccn3Cc3ccnc(F)c3)n2)c1C` [Compound B117, (E)-N-(4-(2-(1-ethyl-5-methyl-1H-imidazol-4-yl)vinyl)thiazol-2-yl)-1-((2-fluoropyridin-4-yl)methyl)-1H-pyrrole-2-carboxamide], the pIC50 in [1] (mean) is 4.63; in data set [5] (mean), 7.50; in [8] (mean), below 4.60; in data set [9] (mean) it was below 4.60. For the same compound, the “24 hr Dox Inducible TNFaFLGluc 293FRT/TO: TNF/PD1” value in data set [1] (setting [11]) turned out to be 743. Moreover, the pEC50 is 4.77 in [2] and 4.67 in [10]. In addition, the “Liver Microsome Stability (Multiple Species): Human - % Remaining after 30 min w/NADPH” value in [3] is given as 0.29%. Besides, the “Liver Microsome Stability (Multiple Species): Rat - % Remaining after 30 min w/NADPH” value in data set [4] was found to be 4.95%. Also, the “Liver Microsome Stability (Multiple Species): Mouse - % Remaining after 30 min w/NADPH” value in [6] is listed as 15.8%. Further, the “Liver Microsome Stability (Multiple Species): Monkey - % Remaining after 30 min w/NADPH” value in data set [7] was 0.22%. For the same compound, the “24 hr Dox Inducible IL2FLGluc 293FRT/TO: IL2/PD1” value in data set [8] (setting [11]) is on record as above 790.
As for `Cc1c(/C=C/c2csc(NC(=O)c3cccn3Cc3ccnc(F)c3)n2)ncn1C(C)CO` (stereo not drawn) [Compound B118, (E)-1-((2-fluoropyridin-4-yl)methyl)-N-(4-(2-(1-(1-hydroxypropan-2-yl)-5-methyl-1H-imidazol-4-yl)vinyl)thiazol-2-yl)-1H-pyrrole-2-carboxamide], the pIC50 in [1] (mean) is below 4.60; in data set [5] (mean), 6.61; in data set [8] (mean) it was below 4.60; in [9] (mean), below 4.60. Further, the “24 hr Dox Inducible TNFaFLGluc 293FRT/TO: TNF/PD1” value in [1] (setting [11]) is listed as above 101. For the same compound, the pEC50 in data set [2] and in data set [10] was below 4.60 each time. In addition, the “Liver Microsome Stability (Multiple Species): Human - % Remaining after 30 min w/NADPH” value in data set [3] is reported as 0.37%. Moreover, the “Liver Microsome Stability (Multiple Species): Rat - % Remaining after 30 min w/NADPH” value in data set [4] is 14.9%. Besides, the “Liver Microsome Stability (Multiple Species): Mouse - % Remaining after 30 min w/NADPH” value in [6] amounted to 40.4%. Besides, the “Liver Microsome Stability (Multiple Species): Monkey - % Remaining after 30 min w/NADPH” value in [7] came to 0.21%. Further, the “24 hr Dox Inducible IL2FLGluc 293FRT/TO: IL2/PD1” value in data set [8] (setting [11]) is above 100.
Turning to `CCOC(=O)C(C)n1cnc(/C=C/c2csc(NC(=O)c3cccn3Cc3ccnc(F)c3)n2)c1C` (stereo not drawn) [Compound B119, ethyl (E)-2-(4-(2-(2-(1-((2-fluoropyridin-4-yl)methyl)-1H-pyrrole-2-carboxamido)thiazol-4-yl)vinyl)-5-methyl-1H-imidazol-1-yl)propanoate], the pIC50 in data set [1] (mean) is 4.67; in [5] (mean), 7.29; in [8] (mean) it was 5.00; in [9] (mean), 5.05. In addition, in [1] (setting [11]), the “24 hr Dox Inducible TNFaFLGluc 293FRT/TO: TNF/PD1” value is given as 418. The negative-log EC50 (pEC50) is 4.88 in [2] and 4.81 in data set [10]. For the same compound, the “Liver Microsome Stability (Multiple Species): Human - % Remaining after 30 min w/NADPH” value in [3] was found to be 0.15%. Moreover, the “Liver Microsome Stability (Multiple Species): Rat - % Remaining after 30 min w/NADPH” value in data set [4] came to 0.7%. Also, in data set [6], the “Liver Microsome Stability (Multiple Species): Mouse - % Remaining after 30 min w/NADPH” value was 2.37%. Further, the “Liver Microsome Stability (Multiple Species): Monkey - % Remaining after 30 min w/NADPH” value in [7] is 0.1%. Besides, in data set [8] (setting [11]), the “24 hr Dox Inducible IL2FLGluc 293FRT/TO: IL2/PD1” value was 200.
In the case of `COC(=O)Cn1cnc(/C=C/c2csc(NC(=O)c3cccn3Cc3ccnc(F)c3)n2)c1C` [Compound B120, methyl (E)-2-(4-(2-(2-(1-((2-fluoropyridin-4-yl)methyl)-1H-pyrrole-2-carboxamido)thiazol-4-yl)vinyl)-5-methyl-1H-imidazol-1-yl)acetate], the pIC50 is below 4.60 in [1] (mean), 5.57 in data set [5] (mean), below 4.60 in data set [8] (mean) and below 4.60 in [9] (mean). Also, in [1] (setting [11]), the “24 hr Dox Inducible TNFaFLGluc 293FRT/TO: TNF/PD1” value is above 9.29. The pEC50 in [2] and in data set [10] was below 4.60 each time. Besides, in data set [3], the “Liver Microsome Stability (Multiple Species): Human - % Remaining after 30 min w/NADPH” value turned out to be 0.24%. In addition, in data set [4], the “Liver Microsome Stability (Multiple Species): Rat - % Remaining after 30 min w/NADPH” value was 2.69%. Moreover, the “Liver Microsome Stability (Multiple Species): Mouse - % Remaining after 30 min w/NADPH” value in data set [6] is on record as 6.6%. Besides, the “Liver Microsome Stability (Multiple Species): Monkey - % Remaining after 30 min w/NADPH” value in [7] was determined as 0.15%. Also, the “24 hr Dox Inducible IL2FLGluc 293FRT/TO: IL2/PD1” value in [8] (setting [11]) is reported as above 9.3.
